Assay results published in patent US10689622B2, “Culture medium for proliferating stem cell, which contains sulfated compound” (AJINOMOTO CO., INC., priority 2012, dated 2020).

Assays:
bFGF = target: T1, bFGF (Homo sapiens, UniProt P09038); test: Evaluation of bFGF stabilization in ReproFF2 medium (ELISA); type: biochemical; details: 37° C. for 7 days
T1 construct: purchased Lonza (via TAKARA BIO INC.) Ser. No. 00/190,632
Experimental: (§1) A commercially available measurement kit (human bFGF ELISA kit, ELH-bFGF-001, Ray Biotech) was used for quantification of bFGF in the medium. The measurement procedures followed the protocol attached to the kit. The bFGF concentration of the serum-free medium was calculated from the analytical curve (conversion formula) drawn from the absorbance of an analytical curve standard solution. The evaluation criteria of Tables 5-8 are as follows:
(§2) A test compound was dissolved in phosphate buffered saline, and diluted 10-fold with a serum-free medium to adjust the concentration shown in Table 4 (test sample). The test sample was left standing in a tightly sealed Falcon tube at 37° C. for 7 days, and the bFGF concentration was quantified by ELISA measurement. A phosphate buffered saline without a test compound was diluted 10-fold with Essential 8 medium or ReproFF2 medium, and left standing at 37° C. or 4° C. for 7 days, and used as a control.
as §1, with “Table 13” for “Tables 5-8”
as §2, with “Table 12” for “Table 4”

iPS cell 201B7 strain = test: iPS cell proliferation system (cell number); type: cell-based, human; details: matrigel, Essential-8 medium
Experimental: The cell proliferation effect of various test compounds was evaluated using artificial pluripotent stem cell (iPS cell). 201B7 strain purchased from iPS Academia Japan, Inc. was grown in a culture container coated with a basal lamina matrix (matrigel manufactured by Nippon Becton Dickinson Company, Ltd., or a fragment containing an active domain of laminin 511 purchased from OSAKA UNIVERSITY) (Becton, Dickinson and Company, Falcon culture petri dish or Falcon culture plate), contained in a feeder-free medium for human ES/iPS cell (ReproCELL Inc, ReproFF2).
In this medium were suspended iPS cells in colony state, and a 2.5- to 3.5-fold diluted amount of the original culture was plated on a 6-well culture plate coated with a basal lamina matrix (Nippon Becton Dickinson Company, Ltd., Falcon culture plate). […] After culturing for 6 to 12 days, the medium was removed, the cells were detached from the culture plate by a trypsin-EDTA (Sigma-Aldrich Ltd.) or TrypLE Select (Invitrogen) treatment and the cell number was measured. The cell number was measured by the method described in “Kaitei Saibou baiyou Nyuumon Note, page 77-83, 2010, YODOSHA CO., LTD.” which is incorporated herein by reference in its entirety.
When the cells were seeded in a dissociation state of the cells (single cell state), a test compound solution after filter sterilization was added to a medium containing Y-27632 (Nacalai Tesque) to a given concentration, and dispensed to a 6 well culture plate. Thereto were plated iPS cells suspended in a medium containing Y-27632 at 100,000 cells/well, and cultured for 6 to 8 days. On the next day of seeding, the medium was exchanged to a medium (without Y-27632) added with the test compound alone. When medium exchange was necessary, the medium was exchanged every 2 or 3 days. […] After culturing for 6 to 8 days, the cell number was measured by a method similar to that mentioned above.
When the evaluation was performed in Essential 8 medium (Invitrogen), which is a different feeder-free medium for iPS cell, iPS cells cultured in a medium obtained by adding human serum albumin (Sigma-Aldrich Co. LLC) to Essential 8 medium were used.

[1] = tested on: Human bone marrow-derived mesenchymal stem cells; test: Mesenchymal stem cell proliferation system (cell number by DNA quantification); details: growth of mesenchymal stem cell, control ratio

T1 sequence (P09038 143-288): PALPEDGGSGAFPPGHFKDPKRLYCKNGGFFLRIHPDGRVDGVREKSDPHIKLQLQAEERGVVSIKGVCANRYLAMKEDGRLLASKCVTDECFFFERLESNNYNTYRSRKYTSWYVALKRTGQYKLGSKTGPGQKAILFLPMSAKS

- concentration showing a suppressive effect on a decrease in the bFGF concentration of the medium (bFGF): not less than 250 pg/ml
Structure (SMILES): O=S(=O)([O-])OC[C@H]1O[C@@](COS(=O)(=O)[O-])(O[C@H]2O[C@H](COS(=O)(=O)[O-])[C@@H](OS(=O)(=O)[O-])[C@H](OS(=O)(=O)[O-])[C@H]2OS(=O)(=O)[O-])[C@@H](OS(=O)(=O)[O-])[C@@H]1OS(=O)(=O)[O-].[K+].[K+].[K+].[K+].[K+].[K+].[K+].[K+] [sucrose 8SO3K]
- bFGF concentration relative to that of 4° C. control (ELISA) (bFGF; test compound 250 pg/ml): − (bFGF concentration was not less than 10% and less than 30% relative to that of 4 °C control)
- bFGF concentration relative to that of 4° C. control (ELISA) (bFGF; test compound 25 ng/ml): +++ (bFGF concentration was not less than 70% relative to that of 4 °C control)
- bFGF concentration relative to that of 4° C. control (ELISA) (bFGF; test compound 250 ng/ml): +++ (bFGF concentration was not less than 70% relative to that of 4 °C control)
- bFGF concentration relative to that of 4° C. control (ELISA) (bFGF; test compound 25 μg/ml): ++ (bFGF concentration was not less than 50% and less than 70% relative to that of 4 °C control)
- bFGF concentration relative to that of 4° C. control (ELISA) (bFGF; test compound 250 μg/ml): +++ (bFGF concentration was not less than 70% relative to that of 4 °C control)
- number of cells relative to control (iPS cell 201B7 strain; test compound 25 ng/ml): ◯ (not less than 100%: ◯)
- number of cells relative to control (iPS cell 201B7 strain; test compound 250 ng/ml): ◯ (not less than 100%: ◯)
- effectiveness cells [1]: ⊚ (⊚ not less than 120%)
